Blank lines part the entries; values can stand above or below the substance they belong to. Primed or numbered codes have the meaning given here. Where no end group is shown, it is not given here. FITC′ = not defined here
Tests used:
[1] = test system: SEG1 (adenocarcinoma) cells; experiment: Target peptide binding to cell surface targets; format: cell-based; details: 100 μM
Protocol: Identification of plasma membrane targets on adenocarcinoma cells that affinity bind to “ASYNYDA” (SEQ ID NO: 5). The carboxyl end of the target peptide was linked to affinity column beads using EDC chemistry. Seg-1 cells were grown to confluency, lysed by sonification, and fractionated by centrifugation. The resulting membrane fractions were applied to the target peptide labeled column and specific binding proteins were eluted. These proteins were separated and collected in fractions by a reverse phase column using a Beckman PF 2D liquid chromatography apparatus. The protein fractions were spotted on a nitrocellulose coated micro array printer slide and probed with the FITC-labeled target peptide. The fluorescence intensities at each spot were quantified with an Axon Imager. Protein fractions with the highest intensity were trypsinized, and proteomic analysis was performed using a Finnigan LTQ linear ion trap mass spectrometer. The protein identities were confirmed using an International Protein Index (IPI) database search, utilizing the SEQUEST program and with open source Xtandem and peptide and protein prophet software. […] See Table 1 below for list of targets identified. All identified proteins were either an exact match or >0.99.

[2] = test system: 0E-21 (squamous) cells; experiment: Target peptide binding to cell surface targets; format: cell-based; details: 100 μM
[3] = test system: Q-hTERT (intestinal metaplasia) cells; experiment: Target peptide binding to cell surface targets; format: cell-based; details: 100 μM
[4] = test system: OE33 esophageal adenocarcinoma cells; experiment: Competitive inhibition assay (peptide vs SNFYMPL-phage); format: cell-based, human; details: peptide at 100, 200, and 400 μM
Protocol: Competitive inhibition assay. The OE33 and Q-hTERT cells were detached and blocked. […] pfu of SNFYMPL-phage was incubated with OE33 cells (1×10^7) or Q-hTERT cells (1×10^7), ‘SNFYMPL-GGGSK’ peptide or scrambled peptide ‘NLMPYFS-GGGSK’ were added into cell-phage mixture at the concentration of 100, 200, and 400 μm for competition with the phage. After washing three times with PBS/0.1% (v/v) Tween-20 and one time with 0.2 M glycine, pH 2.2/0.1% BSA for two minutes, the bound phage were recovered and titered. Every sample was carried out in triplicate. The amount of bound phage in every sample was […].

[5] = test system: OE33 (esophageal adenocarcinoma) cells; experiment: Fluorescence images for peptide binding on culture cells; format: cell-based, human; details: for intensity associated with binding to the cell surface: OE33
Protocol: (§1) Fluoresence images for peptide binding on culture cells. The OE33 and QhTERT cells were grown in chamber slides to 80% confluence. Blocking of non-specific binding to these cells was performed by adding 200 μl of 1% BSA diluted in PBS for 30 min. The cells were then incubated with […] of the candidate FITC-labeled peptide in serum free media for 10 minutes at room temperature. The cells were washed 3 times using 200 μL PBS/0.5% TWEEN 20 in room temperature. The cells were fixed in ice cold 4% praformaldehyde for 5 minutes. The cells were then stained with Vectashield mounting medium containing DAPI. Fluorescence images were collected with a confocal microscope (Nikon 1000) at 200×. The fluorescence intensity from the cells in 3 images was averaged to assess for peptide binding using NIH Image J software.

[6] = test system: Q-hTERT (intestinal metaplasia) cells; experiment: as above; format: cell-based
Protocol: as §1

[7] = test system: Human endoscopic mucosal resection (EMR) specimens of esophageal mucosa; experiment: Fluorescence-labeled polypeptide binding to endoscopic mucosal resection (EMR) specimens; details: for mean fluorescence intensity value: 100 μm, 5 minutes
Protocol: Human endoscopic mucosal resection (EMR) specimens were freshly taken from regions of suspected dysplastic mucosa. Each specimen was incubated with the FITC-labeled polypeptide of SEQ ID NO: 1 at a concentration of 100 μm for 5 minutes. Ink was used to mark the 12 o'clock position for orientation. White light stereo microscope (Olympus SZX16) images were obtained with an overlying 20×20 mm grid to register the histology. Fluorescence images were obtained at an exposure of 12 ms. The tissue was then fixed in formalin. An expert GI pathologist sectioned the specimens along cross-sections at ˜2 mm intervals longitudinally and interpreted the histopathology while blinded to the fluorescence images. The mean intensity of the fluorescence images in each 1 mm interval was measured using the NIH Image J processing software and compared with histology.

Substance: ASYNYDA
binding to cell surface targets [1]: preferential binding
binding to cell surface targets [2]: lack of binding
binding to cell surface targets [3]: lack of binding

Substance: NLMPYFS-GGGSK (NLMPYFSGGGSK) [scrambled control peptide, reference compound]
inhibition of SNFYMPL-phage binding to OE33 cells [4]: no inhibition ability
inhibition of SNFYMPL-phage binding to OE33 cells ([4]; listed as scrambled peptide ‘NLMPYFS’): did not inhibit

Substance: SNFYMPL-GGGSK
inhibition of SNFYMPL-phage binding to OE33 cells [4]: could obviously inhibit
inhibition of SNFYMPL-phage binding to OE33 cells ([4]; listed as ‘SNFYMPL’ peptide): significantly inhibited the SNFYMPL-phage binding to the OE33 cells in a concentration dependent manner

mean fluorescence intensity value ([7]; dysplasia (n=69 sites)): 56.5 gray levels
mean fluorescence intensity value ([7]; gastric mucosa (n=35 sites)): 24.1 gray levels
mean fluorescence intensity value ([7]; intestinal metaplasia (n=66 sites)): 42.1 gray levels
binding to Barrett's dysplasia ([7]; mucosal surface areas on the centimeter scale): Selective binding
mean fluorescence intensity value ([7]; squamous (n=107 sites)): 27.1 gray levels
Substance: SNFYMPL-GGGSK-FITC (SNFYMPLGGGSK-{FITC′}) [FITC conjugated at the C-terminus of SNFYMPL via the GGGSK linker]
intensity associated with binding to the cell surface ([5]; FIG. 3 legend): 69±18
intensity associated with binding to the cell surface ([5]; NIH Image J): 69 mean grey value
cells with peptide bound to the plasma membrane ([5]; OE33 cells, FITC-labeled peptide, 10 minutes): > 90%
intensity associated with binding to the cell surface ([6]; FIG. 3 legend): 25.7±2.5
intensity associated with binding to the cell surface ([6]; NIH Image J): 25.7 mean grey value

Source: US20100310459A1, “Targeted Detection of Dysplasia In Barrett's Esophagus With A Novel Fluorescence-Labeled Polypeptide” (THE REGENTS OF THE UNIVERSITY OF MICHIGAN, priority 2009, published 2010)
